What was measured:
Assay type in all cases: in vivo, human
[1] = test system: moderate ulcerative colitis; assay: Individual subject examples: PGA score and rectal bleeding
Description: The subject takes two tablets of the pharmaceutical in the morning and two tablets in the evening such that about 4.8 g/day of 5-ASA is delivered. […] The four tablets are taken in the morning so that 4.8 g/day of 5-ASA is delivered.

[2] = test system: moderate ulcerative colitis; assay: Two phase III randomized double-blind trials: overall improvement (treatment success) from baseline at week 6; conditions: for Overall improvement: all subjects with moderately active UC, Studies I and II
Description: Data from subjects with mild to moderate UC are combined and analyzed from two phase III, multi-center, randomized, double-blind, controlled clinical trials of identical design assessing the safety and clinical efficacy of an increased dosage of 5-ASA. The primary endpoint is the percentage of moderate UC subjects achieving overall improvement (i.e., treatment success) from baseline at week 6. This is defined as: (1) complete response (remission); complete resolution of signs and symptoms (stool frequency, rectal bleeding, Subject Functional Assessment (SFA) and sigmoidoscopy score) and a Physician's Global Assessment (PGA) of 0; or (2) partial response; improvement from baseline in the PGA score and improvement in at least one clinical assessment (stool frequency, rectal bleeding, SFA and sigmoidoscopy score) and no worsening in any of the other clinical assessments. […] Pre-specified subgroup analyses for fifty-four demographic and baseline characteristics are performed in subjects with moderately active disease (PGA score=2) to assess consistency of primary endpoint.

[3] = test system: moderate ulcerative colitis; assay: Bayesian analysis of treatment success probability in men with moderate disease
Experimental: In addition, a Bayesian analysis is conducted to calculate the probability that treatment with the 4.8 g/day dose in men results in a higher success rate than treatment with the 2.4 g/day does. This type of analysis considers data from any previous studies conducted using either of the two dose levels. […] Using these prior distributions and Bayes analyses, the “posterior distribution” is calculated for each dose level based on the date obtained from previous studies.

[4] = Safety and tolerability in the phase III trials
Description: Data from subjects with mild to moderate UC are combined and analyzed from two phase III, multi-center, randomized, double-blind, controlled clinical trials of identical design assessing the safety and clinical efficacy of an increased dosage of 5-ASA.

[5] = Example 6: person, two 1.2 g delayed-release tablets three times daily (7.2 g/day)
[6] = Example 5: person previously treated with steroids, four 1.2 g delayed-release tablets once daily (4.8 g/day)
[7] = Example 4: non-smoking man, oral, two 1.2 g tablets twice daily

Structure (SMILES): O=C(O)CCNC(=O)c1ccc(/N=N/c2ccc(O)c(C(=O)O)c2)cc1 [balsalazide, (E)-5-[[4-[[(2-carboxyethyl)amino]carbonyl]phenyl]azo]-2-hydroxybenzoic acid]
- Physician's Global Assessment (PGA) score [1, 5]: improves in comparison to baseline
- Rectal bleeding [1, 5]: reduced

Structure (SMILES): Nc1ccc(O)c(C(=O)O)c1 [mesalamine, 5-amino-2-hydroxybenzoic acid]
- Overall improvement ([2]; 2.4 g/day (400 mg tablet)): 58%
- Success Rate ([2]; 2.4 g/day, male, moderate disease, Study 1, primary analysis): 50.0%
- Success Rate ([2]; 2.4 g/day, male, moderate disease, Study 1, set-to-failure): 46.8%
- Success Rate ([2]; 2.4 g/day, male, moderate disease, Study 2, primary analysis): 48.8%
- Success Rate ([2]; 2.4 g/day, male, moderate disease, Study 2, set-to-failure): 47.7%
- Overall improvement at week 6 ([2]; 2.4 g/day, moderate UC, combined studies, female): 66%
- Overall improvement at week 6 ([2]; 2.4 g/day, moderate UC, combined studies, left-sided colitis): 56%
- Overall improvement at week 6 ([2]; 2.4 g/day, moderate UC, combined studies, male): 50%
- Overall improvement at week 6 ([2]; 2.4 g/day, moderate UC, combined studies, pancolitis): 55%
- Overall improvement at week 6 ([2]; 2.4 g/day, moderate UC, combined studies, previous steroid use: no): 62%
- Overall improvement at week 6 ([2]; 2.4 g/day, moderate UC, combined studies, previous steroid use: yes): 52%
- Overall improvement at week 6 ([2]; 2.4 g/day, moderate UC, combined studies, proctitis): 71%
- Overall improvement at week 6 ([2]; 2.4 g/day, moderate UC, combined studies, proctosigmoiditis): 56%
- Success Rate ([2]; 2.4 g/day, moderate female, bowel and blood and sig scores at least 2, Study 2, primary endpoint, week 6): 27%
- Success Rate ([2]; 2.4 g/day, moderate female, bowel and blood and sig scores at least 2, Study 2, set to failure, week 6): 27%
- Success Rate ([2]; 2.4 g/day, moderate female, bowel and blood and sig scores at least 2, combined studies, primary endpoint, week 6): 51%
- Success Rate ([2]; 2.4 g/day, moderate female, bowel and blood and sig scores at least 2, combined studies, set to failure, week 6): 49%
- Success Rate ([2]; 2.4 g/day, moderate female, steroid or (bowel and blood and sig), Study 1, primary endpoint, week 6): 55%
- Success Rate ([2]; 2.4 g/day, moderate female, steroid or (bowel and blood and sig), Study 1, set to failure, week 6): 51%
- Success Rate ([2]; 2.4 g/day, moderate female, steroid or (bowel and blood and sig), Study 2, primary endpoint, week 6): 33%
- Success Rate ([2]; 2.4 g/day, moderate female, steroid or (bowel and blood and sig), Study 2, set to failure, week 6): 31%
- Success Rate ([2]; 2.4 g/day, moderate female, steroid or (bowel and blood and sig), combined studies, primary endpoint, week 6): 46%
- Success Rate ([2]; 2.4 g/day, moderate female, steroid or (bowel and blood and sig), combined studies, set to failure, week 6): 43%
- Success Rate ([2]; 2.4 g/day, moderate female, steroid use, Study 1, primary endpoint, week 6): 43%
- Success Rate ([2]; 2.4 g/day, moderate female, steroid use, Study 1, set to failure, week 6): 41%
- Success Rate ([2]; 2.4 g/day, moderate female, steroid use, Study 2, primary endpoint, week 6): 38%
- Success Rate ([2]; 2.4 g/day, moderate female, steroid use, Study 2, set to failure, week 6): 33%
- Success Rate ([2]; 2.4 g/day, moderate female, steroid use, combined studies, primary endpoint, week 6): 41%
- Success Rate ([2]; 2.4 g/day, moderate female, steroid use, combined studies, set to failure, week 6): 38%
- Actual response rate ([2]; 2.4 g/day, women, moderate disease): exceeded 60%
- Overall improvement ([2]; 4.8 g/day (800 mg tablet)): 72%
- Success Rate ([2]; 4.8 g/day, female, moderate disease, Study 2, set-to-failure): 59.1%
- Success Rate ([2]; 4.8 g/day, male, moderate disease, Study 1, primary analysis): 75.5%
- Success Rate ([2]; 4.8 g/day, male, moderate disease, Study 1, set-to-failure): 74.1%
- Success Rate ([2]; 4.8 g/day, male, moderate disease, Study 2, primary analysis): 76.3%
- Success Rate ([2]; 4.8 g/day, male, moderate disease, Study 2, set-to-failure): 72.5%
- Overall improvement at week 6 ([2]; 4.8 g/day, moderate UC, combined studies, female): 69%
- Overall improvement at week 6 ([2]; 4.8 g/day, moderate UC, combined studies, left-sided colitis): 71%
- Overall improvement at week 6 ([2]; 4.8 g/day, moderate UC, combined studies, male): 76%
- Overall improvement at week 6 ([2]; 4.8 g/day, moderate UC, combined studies, pancolitis): 71%
- Overall improvement at week 6 ([2]; 4.8 g/day, moderate UC, combined studies, previous steroid use: no): 69%
- Overall improvement at week 6 ([2]; 4.8 g/day, moderate UC, combined studies, previous steroid use: yes): 79%
- Overall improvement at week 6 ([2]; 4.8 g/day, moderate UC, combined studies, proctitis): 77%
- Overall improvement at week 6 ([2]; 4.8 g/day, moderate UC, combined studies, proctosigmoiditis): 71%
- Success Rate ([2]; 4.8 g/day, moderate female, bowel and blood and sig scores at least 2, Study 1, primary endpoint, week 6): 81%
- Success Rate ([2]; 4.8 g/day, moderate female, bowel and blood and sig scores at least 2, Study 2, set to failure, week 6): 53%
- Success Rate ([2]; 4.8 g/day, moderate female, bowel and blood and sig scores at least 2, combined studies, primary endpoint, week 6): 76%
- Success Rate ([2]; 4.8 g/day, moderate female, steroid or (bowel and blood and sig), Study 1, primary endpoint, week 6): 75%
- Success Rate ([2]; 4.8 g/day, moderate female, steroid or (bowel and blood and sig), Study 2, primary endpoint, week 6): 73%
- Success Rate ([2]; 4.8 g/day, moderate female, steroid or (bowel and blood and sig), combined studies, primary endpoint, week 6): 74%
- Success Rate ([2]; 4.8 g/day, moderate female, steroid or (bowel and blood and sig), combined studies, set to failure, week 6): about 65%
- Success Rate ([2]; 4.8 g/day, moderate female, steroid use, Study 1, primary endpoint, week 6): 79%
- Success Rate ([2]; 4.8 g/day, moderate female, steroid use, Study 1, set to failure, week 6): 73%
- Success Rate ([2]; 4.8 g/day, moderate female, steroid use, Study 2, set to failure, week 6): 58%
- Success Rate ([2]; 4.8 g/day, moderate female, steroid use, combined studies, primary endpoint, week 6): 73%
- Difference in Proportions ([2]; 4.8 vs 2.4 g/day, female, moderate disease, Study 1, primary analysis): 2.3%
- Difference in Proportions ([2]; 4.8 vs 2.4 g/day, female, moderate disease, Study 1, set-to-failure): 3.0%
- Difference in Proportions ([2]; 4.8 vs 2.4 g/day, female, moderate disease, Study 2, primary analysis): 4.4%
- Difference in Proportions ([2]; 4.8 vs 2.4 g/day, female, moderate disease, Study 2, set-to-failure): −2.4%
- Difference in Proportions ([2]; 4.8 vs 2.4 g/day, male, moderate disease, Study 1, primary analysis): 25.5%
- Difference in Proportions ([2]; 4.8 vs 2.4 g/day, male, moderate disease, Study 1, set-to-failure): 27.3%
- Difference in Proportions ([2]; 4.8 vs 2.4 g/day, male, moderate disease, Study 2, primary analysis): 27.5%
- Difference in Proportions ([2]; 4.8 vs 2.4 g/day, male, moderate disease, Study 2, set-to-failure): 24.8%
- Observed differences in success rate between treatment groups ([2]; 4.8 vs 2.4 g/day, men, moderate disease): approximately 25%
- Difference in Proportions ([2]; 4.8 vs 2.4 g/day, women, moderate disease, bowel and blood and sigmoidoscopy scores each ≧2, Study 1, primary endpoint): 14%
- Difference in Proportions ([2]; 4.8 vs 2.4 g/day, women, moderate disease, bowel and blood and sigmoidoscopy scores each ≧2, Study 2, primary endpoint): 42%
- Difference in Proportions ([2]; 4.8 vs 2.4 g/day, women, moderate disease, history of steroid use or bowel and blood and sigmoidoscopy each ≧2, Study 1, primary endpoint): 20%
- Difference in Proportions ([2]; 4.8 vs 2.4 g/day, women, moderate disease, history of steroid use or bowel and blood and sigmoidoscopy each ≧2, Study 2, primary endpoint): 40%
- Difference in Proportions ([2]; 4.8 vs 2.4 g/day, women, moderate disease, history of steroid use, Study 1, primary endpoint): 36%
- Difference in Proportions ([2]; 4.8 vs 2.4 g/day, women, moderate disease, history of steroid use, Study 2, primary endpoint): 27%
- Benefit of 4.8 g/day versus 2.4 g/day therapy (FIG. 3) ([2]; by baseline disease activity, subjects having moderate UC): increased therapeutic benefits
- Benefit of 4.8 g/day versus 2.4 g/day therapy (FIG. 2) ([2]; former steroid users, moderate UC): increased therapeutic benefits
- 4.8 g/day group versus 2.4 g/day group across pre-specified subgroups ([2]; point estimates and 95% confidence intervals of differences, 54 subgroups): consistently superior
- Benefit of 4.8 g/day versus 2.4 g/day therapy (FIG. 1) ([2]; subjects under about 65 years of age, Caucasians, non-smokers, moderate UC): increased benefit
- Probability that 4.8 g/day results in a higher success rate than 2.4 g/day (Bayesian analysis) [3]: 99.97%
- Probability of a successful treatment outcome (Bayesian analysis) ([3]; 2.4 g/day): 47.2%
- Probability of a successful treatment outcome (Bayesian analysis) ([3]; 4.8 g/day): 74.7%
- Tolerability ([4]; 2.4 g/day (400 mg tablet)): well tolerated
- Tolerability / adverse events ([4]; 4.8 g/day (800 mg tablet), oral delayed-release): well tolerated with adverse events comparable to the 2.4 g/day (400 mg tablet) dose
- Safety profile of regimen ([4]; about 4.8 g/day vs 2.4 g/day regimen): comparable to that of the 2.4 g/day regimen
- Physician's Global Assessment (PGA) score [1, 6]: improves in comparison to baseline
- Rectal bleeding [1, 6]: reduced

Structure (SMILES): O=C(O)c1cc(N=Nc2ccc(O)c(C(=O)O)c2)ccc1O [olsalazine, 3,3′-dicarboxy-4,4′-dihydroxyazobenzene]
- Physician's Global Assessment (PGA) score [1, 7]: improves in comparison to baseline
- Rectal bleeding [1, 7]: reduces

Source: patent US20100305076A1, “METHODS OF TREATMENT FOR ULCERATIVE COLITIS” (priority 2006, published 2010)
